In the NIST ThermoML archive (doi:10.1016/j.jct.2017.06.001):

Experiment: xn = mol fraction of the nth substance listed
Conditions: 100 kPa, Liquid; for mass density: Vibrating tube method; for speed of sound: 288.15 K, Frequency=5 MHz, Pulse-echo method

OCCCCCO [1,5-pentanediol] + O
mass density [kg/m3]
Conditions	278.15 K	283.15 K
x1 = 0.005	999.89	999.55
x1 = 0.0101	1000.22	999.78
x1 = 0.0196	1001.39	1000.73
x1 = 0.0251	1002.34	1001.54
x1 = 0.0304	1003.39	1002.41
x1 = 0.05	1006.63	1005.19
x1 = 0.0769	1009.88	1007.89
x1 = 0.1002	1012.01	1009.64
x1 = 0.1438	1013.87	1011.18
x1 = 0.1845	1014.45	1011.58
x1 = 0.2503	1014	1010.96
x1 = 0.3	1013.14	1010.06
x1 = 0.3343	1012.59	1009.43
x1 = 0.4171	1010.69	1007.58
x1 = 0.454	1009.8	1006.71
x1 = 0.5003	1008.7	1005.6
x1 = 0.5362	1007.8	1004.7
x1 = 0.6177	1006	1003
x1 = 0.6478	1005.3	1002.3
x1 = 0.7025	1004.2	1001.2
x1 = 0.7504	1003.3	1000.3
x1 = 0.7927	1002.5	999.4
x1 = 0.8605	1001.1	998.1
x1 = 0.9004	1000.2	997.3
x1 = 0.9496	999.1	996.1
x1 = 1	998	995

Conditions	speed of sound [m/s]
x1 = 0.0001	1467
x1 = 0.0002	1467.6
x1 = 0.0004	1468.5
x1 = 0.0007	1469.7
x1 = 0.001	1471.1
x1 = 0.0013	1472.4
x1 = 0.0018	1474.5
x1 = 0.0025	1477.3
x1 = 0.0032	1480.3
x1 = 0.0039	1483.3
x1 = 0.0047	1486.5
x1 = 0.0053	1489.1
x1 = 0.0059	1491.7
x1 = 0.0066	1494.6
x1 = 0.0074	1497.4
x1 = 0.0079	1499.7
x1 = 0.0086	1502.2
x1 = 0.0092	1504.6
x1 = 0.0098	1507
x1 = 0.0105	1509.5
x1 = 0.0112	1512
x1 = 0.0118	1514.3
x1 = 0.0125	1516.8
x1 = 0.0131	1519
x1 = 0.0138	1521.4
x1 = 0.0144	1523.8
x1 = 0.0151	1526.1
x1 = 0.0157	1528.2
x1 = 0.0164	1530.5
x1 = 0.0171	1532.7
x1 = 0.0177	1535
x1 = 0.0184	1537.1
x1 = 0.0188	1538.3
x1 = 0.0193	1540.1
x1 = 0.0199	1541.8
x1 = 0.0204	1543.6
x1 = 0.021	1545.5
x1 = 0.0219	1548.2
x1 = 0.0226	1550.3
x1 = 0.0233	1552.4
x1 = 0.024	1554.5
x1 = 0.0247	1556.6
x1 = 0.0256	1559.3
x1 = 0.0266	1562.2
x1 = 0.0278	1565.4
x1 = 0.0289	1568.3
x1 = 0.0299	1571
x1 = 0.0309	1573.7
x1 = 0.0319	1576.4
x1 = 0.0331	1579.3
x1 = 0.0342	1582.3
x1 = 0.0353	1584.9
x1 = 0.0365	1587.7
x1 = 0.0376	1590.3
x1 = 0.0387	1592.9
x1 = 0.0398	1595.3
x1 = 0.0409	1597.9
x1 = 0.042	1600.2
x1 = 0.0431	1602.6
x1 = 0.0445	1605.6
x1 = 0.0456	1607.8
x1 = 0.0473	1611.2
x1 = 0.0482	1612.9
x1 = 0.049	1614.5
x1 = 0.0499	1616.2
x1 = 0.0513	1618.7
x1 = 0.0529	1621.5
x1 = 0.0547	1624.7
x1 = 0.0561	1627.2
x1 = 0.0576	1629.6
x1 = 0.0595	1632.6
x1 = 0.0613	1635.3
x1 = 0.0632	1638.1
x1 = 0.0654	1641.4
x1 = 0.0673	1644
x1 = 0.0692	1646.6
x1 = 0.0715	1649.5
x1 = 0.0744	1653
x1 = 0.0768	1655.8
x1 = 0.0796	1658.9
x1 = 0.0824	1661.8
x1 = 0.0856	1665
x1 = 0.0887	1667.9
x1 = 0.0921	1670.8
x1 = 0.0965	1674.4
x1 = 0.1006	1677.4
x1 = 0.1051	1680.5
x1 = 0.1102	1683.6
x1 = 0.1153	1686.5
x1 = 0.1208	1689.2
x1 = 0.1238	1690.6
x1 = 0.1303	1693.2
x1 = 0.1382	1696
x1 = 0.1442	1697.7
x1 = 0.1503	1699.3
x1 = 0.1556	1700.5
x1 = 0.1612	1701.6
x1 = 0.167	1702.6
x1 = 0.1694	1703
x1 = 0.1748	1703.7
x1 = 0.1799	1704.3
x1 = 0.1852	1704.8
x1 = 0.1903	1705.2
x1 = 0.1955	1705.6
x1 = 0.2007	1705.9
x1 = 0.2046	1706
